Experimental data taken from ChEMBL document CHEMBL1201861, “Genomics of Drug Sensitity in Cancer screening data, Wellcome Trust Sanger Institute”.

How the values were obtained:
Experiment in all cases: cells
D-502MG = assay type: functional, cell-based; settings: Homo sapiens
Description: SANGER: Inhibition of human D-502MG cell growth in a cell viability assay.

DJM-1 = assay type: functional, cell-based; settings: Homo sapiens;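 further: growth inhibition of human DJM-1 cells, read out by a cell viability assay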
Description: SANGER: Inhibition of human DJM-1 cell growth in a cell viability assay.

EKVX = assay type: functional, cell-based; settings: Homo sapiens;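 further: growth inhibition of human EKVX cells, read out with a cell viability assay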
Description: SANGER: Inhibition of human EKVX cell growth in a cell viability assay.

ES4 = assay type: functional, cell-based; settings: Homo sapiens;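 further: growth inhibition of human ES4 cells, read out by a cell viability assay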
Description: SANGER: Inhibition of human ES4 cell growth in a cell viability assay.

ES5 = assay type: functional, cell-based; settings: Homo sapiens;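 further: growth inhibition of human ES5 cells, read out by a cell viability assay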
Description: SANGER: Inhibition of human ES5 cell growth in a cell viability assay.

ES6 = assay type: functional, cell-based; settings: Homo sapiens;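 further: growth inhibition of human ES6 cells, read out with a cell viability assay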
Description: SANGER: Inhibition of human ES6 cell growth in a cell viability assay.

EW-13 = assay type: functional, cell-based; settings: Homo sapiens;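 further: growth inhibition of EW-13 cells, read out with a cell viability assay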
Description: SANGER: Inhibition of human EW-13 cell growth in a cell viability assay.

GI-1 = assay type: functional, cell-based; settings: Homo sapiens;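 further: growth inhibition of human GI-1 cells, measured with a cell viability readout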
Description: SANGER: Inhibition of human GI-1 cell growth in a cell viability assay.

HAL-01 = assay type: functional, cell-based; settings: Homo sapiens;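 further: growth inhibition of human HAL-01 cells, read out with a cell viability assay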
Description: SANGER: Inhibition of human HAL-01 cell growth in a cell viability assay.

HCC1187 = assay type: functional, cell-based; settings: Homo sapiens;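 further: growth inhibition of HCC1187 cells, read out with a cell viability assay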
Description: SANGER: Inhibition of human HCC1187 cell growth in a cell viability assay.

HCC2218 = assay type: functional, cell-based; settings: Homo sapiens;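 further: cell viability assay read-out, with IC50 given as the concentration that inhibits growth of the cell line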
Description: SANGER: Inhibition of human HCC2218 cell growth in a cell viability assay.

HDLM-2 = assay type: functional, cell-based; settings: Homo sapiens;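 further: cell viability assay measuring suppression of HDLM-2 proliferation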
Description: SANGER: Inhibition of human HDLM-2 cell growth in a cell viability assay.

HOP-62 = assay type: functional, cell-based; settings: Homo sapiens;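 further: cell growth inhibition determined with a viability assay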
Description: SANGER: Inhibition of human HOP-62 cell growth in a cell viability assay.

HOS = assay type: functional, cell-based; settings: Homo sapiens;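 further: growth inhibition of human HOS cells, read out with a cell viability assay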
Description: SANGER: Inhibition of human HOS cell growth in a cell viability assay.

JVM-2 = assay type: functional, cell-based; settings: Homo sapiens;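 further: growth inhibition of JVM-2 cells determined by a cell viability assay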
Description: SANGER: Inhibition of human JVM-2 cell growth in a cell viability assay.

JVM-3 = assay type: functional, cell-based; settings: Homo sapiens;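 further: growth inhibition of human JVM-3 cells, read out with a cell viability assay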
Description: SANGER: Inhibition of human JVM-3 cell growth in a cell viability assay.

KARPAS-299 = assay type: functional, cell-based; settings: Homo sapiens
Description: SANGER: Inhibition of human KARPAS-299 cell growth in a cell viability assay.

KARPAS-45 = assay type: functional, cell-based; settings: Homo sapiens;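 further: inhibition of cell line growth, read out through a viability assay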
Description: SANGER: Inhibition of human KARPAS-45 cell growth in a cell viability assay.

KG-1 = assay type: functional, cell-based; settings: Homo sapiens;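 further: growth inhibition of KG-1 cells, read out by a cell viability assay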
Description: SANGER: Inhibition of human KG-1 cell growth in a cell viability assay.

KM-H2 = assay type: functional, cell-based; settings: Homo sapiens;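 further: growth inhibition of KM-H2 cells, read out by a cell viability assay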
Description: SANGER: Inhibition of human KM-H2 cell growth in a cell viability assay.

KNS-81-FD = assay type: functional, cell-based; settings: Homo sapiens;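 further: growth inhibition of KNS-81-FD cells, read out with a cell viability assay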
Description: SANGER: Inhibition of human KNS-81-FD cell growth in a cell viability assay.

LB1047-RCC = assay type: functional, cell-based; settings: Homo sapiens;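 further: inhibition of cell growth, determined with a cell viability assay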
Description: SANGER: Inhibition of human LB1047-RCC cell growth in a cell viability assay.

LB2518-MEL = assay type: functional, cell-based; settings: Homo sapiens;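 further: growth inhibition of human LB2518-MEL cells, measured with a cell viability assay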
Description: SANGER: Inhibition of human LB2518-MEL cell growth in a cell viability assay.

MHH-PREB-1 = assay type: functional, cell-based; settings: Homo sapiens;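 further: cell viability assay measuring inhibition of proliferation of human MHH-PREB-1 cells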
Description: SANGER: Inhibition of human MHH-PREB-1 cell growth in a cell viability assay.

MMAC-SF = assay type: functional, cell-based; settings: Homo sapiens;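 further: growth inhibition of human MMAC-SF cells, read out with a cell viability assay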
Description: SANGER: Inhibition of human MMAC-SF cell growth in a cell viability assay.

MOLT-16 = assay type: functional, cell-based; settings: Homo sapiens;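 further: growth inhibition of human MOLT-16 cells, read out with a cell viability assay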
Description: SANGER: Inhibition of human MOLT-16 cell growth in a cell viability assay.

MeWo = assay type: functional, cell-based; settings: Homo sapiens;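 further: growth inhibition of MeWo cells, determined by a cell viability readout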
Description: SANGER: Inhibition of human Mewo cell growth in a cell viability assay.

NB13 = assay type: functional, cell-based; settings: Homo sapiens;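 further: cell viability readout measuring growth inhibition of human NB13 cells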
Description: SANGER: Inhibition of human NB13 cell growth in a cell viability assay.

NB69 = assay type: functional, cell-based; settings: Homo sapiens;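 further: growth inhibition of NB69 cells, determined by a cell viability assay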
Description: SANGER: Inhibition of human NB69 cell growth in a cell viability assay.

NCI-H1304 = assay type: functional, cell-based; settings: Homo sapiens;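 further: growth inhibition of the cancer cell line, measured in a cell viability assay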
Description: SANGER: Inhibition of human NCI-H1304 cell growth in a cell viability assay.

NCI-H1395 = assay type: functional, cell-based; settings: Homo sapiens;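 further: cell viability assay read-out quantifying reduced proliferation of human NCI-H1395 cells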
Description: SANGER: Inhibition of human NCI-H1395 cell growth in a cell viability assay.

NCI-H1563 = assay type: functional, cell-based; settings: Homo sapiens;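 further: growth inhibition of human NCI-H1563 cells, read out with a cell viability assay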
Description: SANGER: Inhibition of human NCI-H1563 cell growth in a cell viability assay.

NCI-H1581 = assay type: functional, cell-based; settings: Homo sapiens;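 further: cell growth inhibition read out by a viability assay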
Description: SANGER: Inhibition of human NCI-H1581 cell growth in a cell viability assay.

NCI-H1650 = assay type: functional, cell-based; settings: Homo sapiens;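 further: growth inhibition of human NCI-H1650 cells measured by a cell viability assay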
Description: SANGER: Inhibition of human NCI-H1650 cell growth in a cell viability assay.

NCI-H1693 = assay type: functional, cell-based; settings: Homo sapiens;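 further: growth inhibition of the human cell line, read out with a cell viability assay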
Description: SANGER: Inhibition of human NCI-H1693 cell growth in a cell viability assay.

NCI-H1838 = assay type: functional, cell-based; settings: Homo sapiens;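 further: growth inhibition of NCI-H1838 cells, determined with a cell viability readout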
Description: SANGER: Inhibition of human NCI-H1838 cell growth in a cell viability assay.

OMC-1 = assay type: functional, cell-based; settings: Homo sapiens;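 further: growth inhibition of the OMC-1 cell line, measured by a cell viability assay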
Description: SANGER: Inhibition of human OMC-1 cell growth in a cell viability assay.

RCC10RGB = assay type: functional, cell-based; settings: Homo sapiens;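 further: growth inhibition of human RCC10RGB cells, read out by a cell viability assay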
Description: SANGER: Inhibition of human RCC10RGB cell growth in a cell viability assay.

RPMI-8226 = assay type: functional, cell-based; settings: Homo sapiens
Description: SANGER: Inhibition of human RPMI-8226 cell growth in a cell viability assay.

RPMI-8866 = assay type: functional, cell-based; settings: Homo sapiens
Description: SANGER: Inhibition of human RPMI-8866 cell growth in a cell viability assay.

Ramos-2G6-4C10 = assay type: functional, cell-based; settings: Homo sapiens;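 further: growth inhibition of the cell line, measured by a cell viability read-out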
Description: SANGER: Inhibition of human Ramos-2G6-4C10 cell growth in a cell viability assay.

SCH = assay type: functional, cell-based; settings: Homo sapiens;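 further: growth inhibition of human SCH cells, read out in a cell viability assay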
Description: SANGER: Inhibition of human SCH cell growth in a cell viability assay.

SF-539 = assay type: functional, cell-based; settings: Homo sapiens;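 further: Read-out is a cell viability assay, with IC50 reflecting inhibition of cell growth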
Description: SANGER: Inhibition of human SF539 cell growth in a cell viability assay.

SK-LMS-1 = assay type: functional, cell-based; settings: Homo sapiens;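 further: growth inhibition of human SK-LMS-1 cells, read out with a cell viability assay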
Description: SANGER: Inhibition of human SK-LMS-1 cell growth in a cell viability assay.

SK-MEL-1 = assay type: functional, cell-based; settings: Homo sapiens;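 further: growth inhibition of human SK-MEL-1 cells, read out by a cell viability assay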
Description: SANGER: Inhibition of human SK-MEL-1 cell growth in a cell viability assay.

SK-N-DZ = assay type: functional, cell-based; settings: Homo sapiens;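 further: growth inhibition of the cancer cell line, read out through a viability assay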
Description: SANGER: Inhibition of human SK-N-DZ cell growth in a cell viability assay.

SK-NEP-1 = assay type: functional, cell-based; settings: Homo sapiens;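 further: growth inhibition of human SK-NEP-1 cells, read out by a cell viability assay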
Description: SANGER: Inhibition of human SK-NEP-1 cell growth in a cell viability assay.

SK-UT-1 = assay type: functional, cell-based; settings: Homo sapiens;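 further: growth inhibition of SK-UT-1 cells, measured by a cell viability assay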
Description: SANGER: Inhibition of human SK-UT-1 cell growth in a cell viability assay.

SW-620 = assay type: functional, cell-based; settings: Homo sapiens;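 further: growth inhibition of human SW-620 cells, measured by a cell viability assay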
Description: SANGER: Inhibition of human SW620 cell growth in a cell viability assay.

697 = assay type: functional, cell-based; settings: Homo sapiens
Description: SANGER: Inhibition of human 697 cell growth in a cell viability assay.

A4-Fuk = assay type: functional, cell-based; settings: Homo sapiens;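 further: growth inhibition of A4-Fuk cells, read out by a cell viability assay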
Description: SANGER: Inhibition of human A4-Fuk cell growth in a cell viability assay.

A498 = assay type: functional, cell-based; settings: Homo sapiens;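 further: growth inhibition of human A498 cells, read out with a cell viability assay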
Description: SANGER: Inhibition of human A498 cell growth in a cell viability assay.

ATN-1 = assay type: functional, cell-based; settings: Homo sapiens
Description: SANGER: Inhibition of human ATN-1 cell growth in a cell viability assay.

BB65-RCC = assay type: functional, cell-based; settings: Homo sapiens
Description: SANGER: Inhibition of human BB65-RCC cell growth in a cell viability assay.

BV-173 = assay type: functional, cell-based; settings: Homo sapiens
Description: SANGER: Inhibition of human BV-173 cell growth in a cell viability assay.

Becker = assay type: functional, cell-based; settings: Homo sapiens
Description: SANGER: Inhibition of human Becker cell growth in a cell viability assay.

CAL-12T = assay type: functional, cell-based, Homo sapiens; settings: Homo sapiens, CAL-12T
Description: SANGER: Inhibition of human CAL-12T cell growth in a cell viability assay.

TE-8 = assay type: functional, cell-based; settings: Homo sapiens
Description: SANGER: Inhibition of human TE-8 cell growth in a cell viability assay.

TGBC1TKB = assay type: functional, cell-based; settings: Homo sapiens
Description: SANGER: Inhibition of human TGBC1TKB cell growth in a cell viability assay.

TGBC24TKB = assay type: functional, cell-based; settings: Homo sapiens
Description: SANGER: Inhibition of human TGBC24TKB cell growth in a cell viability assay.

Work on `C[C@]1(c2nc3c(C(N)=O)cccc3[nH]2)CCCN1` [VELIPARIB] yielded an IC50 (D-502MG) of over 5 µM, an IC50 (DJM-1) of over 5 µM and an IC50 (EKVX) of over 5 µM. It also gave an IC50 (ES4) of over 5 µM, an IC50 (ES5) of over 5 µM and an IC50 (ES6) of over 5 µM. It also gave an IC50 (EW-13) of over 5 µM, an IC50 (GI-1) of over 5 µM and an IC50 (HAL-01) of over 5 µM. It also gave an IC50 (HCC1187) of over 5 µM, an IC50 (HCC2218) of over 5 µM and an IC50 (HDLM-2) of over 5 µM. For the same compound, the IC50 (HOP-62) was over 5 µM, the IC50 (HOS) was over 5 µM and the IC50 (JVM-2) was over 5 µM. The IC50 (JVM-3) was over 5 µM, the IC50 (KARPAS-299) was over 5 µM and the IC50 (KARPAS-45) was over 5 µM. The IC50 (KG-1) was over 5 µM, the IC50 (KM-H2) was over 5 µM and the IC50 (KNS-81-FD) was over 5 µM. It also gave an IC50 (LB1047-RCC) of over 5 µM, an IC50 (LB2518-MEL) of over 5 µM and an IC50 (MHH-PREB-1) of over 5 µM. For the same compound, the IC50 (MMAC-SF) was over 5 µM, the IC50 (MOLT-16) was over 5 µM and the IC50 (MeWo) was over 5 µM. For the same compound, the IC50 (NB13) was over 5 µM, the IC50 (NB69) was over 5 µM and the IC50 (NCI-H1304) was over 5 µM. It also gave an IC50 (NCI-H1395) of over 5 µM, an IC50 (NCI-H1563) of over 5 µM and an IC50 (NCI-H1581) of over 5 µM. The IC50 (NCI-H1650) was over 5 µM, the IC50 (NCI-H1693) was over 5 µM and the IC50 (NCI-H1838) was over 5 µM. It also gave an IC50 (OMC-1) of over 5 µM, an IC50 (RCC10RGB) of over 5 µM and an IC50 (RPMI-8226) of over 5 µM. For the same compound, the IC50 (RPMI-8866) was over 5 µM, the IC50 (Ramos-2G6-4C10) was over 5 µM and the IC50 (SCH) was over 5 µM. It also gave an IC50 (SF-539) of over 5 µM, an IC50 (SK-LMS-1) of over 5 µM and an IC50 (SK-MEL-1) of over 5 µM. The IC50 (SK-N-DZ) was over 5 µM, the IC50 (SK-NEP-1) was over 5 µM and the IC50 (SK-UT-1) was over 5 µM. It also gave an IC50 (SW-620) of over 5 µM, an IC50 697 of over 5 µM and an IC50 (A4-Fuk) of over 5 µM. For the same compound, the IC50 (A498) was over 5 µM, the IC50 (ATN-1) was over 5 µM and the IC50 (BB65-RCC) was over 5 µM. The IC50 (BV-173) was over 5 µM, the IC50 (Becker) was over 5 µM and the IC50 (CAL-12T) was over 5 µM. For the same compound, the IC50 (TE-8) was over 5 µM, the IC50 (TGBC1TKB) was over 5 µM and the IC50 (TGBC24TKB) was over 5 µM.

For `CC[C@]1(O)C[C@@H]2CN(CCc3c([nH]c4ccccc34)[C@@](C(=O)OC)(c3cc4c(cc3OC)N(C)[C@H]3[C@@](O)(C(=O)OC)[C@H](OC(C)=O)[C@]5(CC)C=CCN6CC[C@]43[C@@H]65)C2)C1` [VINBLASTINE], the IC50 (D-502MG) was 0.0235 µM, the IC50 (DJM-1) was over 0.1 µM and the IC50 (EKVX) was over 0.1 µM. The IC50 (ES4) was 0.0138 µM, the IC50 (ES5) was 0.00388 µM and the IC50 (ES6) was over 0.1 µM. It also gave an IC50 (EW-13) of 0.0365 µM, an IC50 (GI-1) of 0.00436 µM and an IC50 (HAL-01) of over 0.1 µM. It also gave an IC50 (HCC1187) of 0.00275 µM, an IC50 (HCC2218) of 0.0793 µM and an IC50 (HDLM-2) of over 0.1 µM. The IC50 (HOP-62) was over 0.1 µM, the IC50 (HOS) was 0.00625 µM and the IC50 (JVM-2) was over 0.1 µM. For the same compound, the IC50 (JVM-3) was 0.0017 µM, the IC50 (KARPAS-299) was over 0.1 µM and the IC50 (KARPAS-45) was 0.00179 µM. It also gave an IC50 (KG-1) of 0.0184 µM, an IC50 (KM-H2) of 0.00534 µM and an IC50 (KNS-81-FD) of 0.0202 µM. For the same compound, the IC50 (LB1047-RCC) was 0.0403 µM, the IC50 (LB2518-MEL) was over 0.1 µM and the IC50 (MHH-PREB-1) was 0.00149 µM. The IC50 (MMAC-SF) was 0.0151 µM, the IC50 (MOLT-16) was 0.00243 µM and the IC50 (MeWo) was 0.00913 µM. For the same compound, the IC50 (NB13) was 0.00327 µM, the IC50 (NB69) was 0.00573 µM and the IC50 (NCI-H1304) was over 0.1 µM. It also gave an IC50 (NCI-H1395) of 0.00428 µM, an IC50 (NCI-H1563) of 0.0215 µM and an IC50 (NCI-H1581) of 0.00424 µM. It also gave an IC50 (NCI-H1650) of over 0.1 µM, an IC50 (NCI-H1693) of 0.0782 µM and an IC50 (NCI-H1838) of over 0.1 µM. It also gave an IC50 (OMC-1) of over 0.1 µM, an IC50 (RCC10RGB) of over 0.1 µM and an IC50 (RPMI-8226) of 0.00285 µM. The IC50 (RPMI-8866) was 0.00197 µM, the IC50 (Ramos-2G6-4C10) was 0.00155 µM and the IC50 (SCH) was 0.0297 µM. For the same compound, the IC50 (SF-539) was 0.00121 µM, the IC50 (SK-LMS-1) was 0.0586 µM and the IC50 (SK-MEL-1) was 0.0673 µM. For the same compound, the IC50 (SK-N-DZ) was 0.0374 µM, the IC50 (SK-NEP-1) was 0.0015 µM and the IC50 (SK-UT-1) was 0.0117 µM. For the same compound, the IC50 (SW-620) was 0.00884 µM, the IC50 697 was 0.00623 µM and the IC50 (A4-Fuk) was 0.00187 µM. The IC50 (A498) was 0.00594 µM, the IC50 (ATN-1) was 0.00103 µM and the IC50 (BB65-RCC) was 0.0207 µM. For the same compound, the IC50 (BV-173) was 0.0423 µM, the IC50 (Becker) was 0.00113 µM and the IC50 (CAL-12T) was 0.056 µM. For the same compound, the IC50 (TE-8) was 0.00616 µM, the IC50 (TGBC1TKB) was 0.0312 µM and the IC50 (TGBC24TKB) was 0.0325 µM.
